One compound from patent publication US11235023B2, “Beta-hairpin peptidomimetic with elastase inhibitory activity and aerosol dosage forms thereof” (POLYPHOR AG, priority 2016, dated 2022) can be followed below.

Non-standard residues stand in square brackets, D forms with d. Residues, ends and D or L forms follow the SMILES beside them. Gly(octyl) = CCCCCCCC[C@H](N)C(=O)O

The target of data set [1] is T1, human neutrophil elastase (Homo sapiens, UniProt P08246).
T1 construct: from tissue; host or cells: spontaneous sputum of patients with cystic fibrosis (PBS-soluble fraction)
T1 sequence (P08246 30-267): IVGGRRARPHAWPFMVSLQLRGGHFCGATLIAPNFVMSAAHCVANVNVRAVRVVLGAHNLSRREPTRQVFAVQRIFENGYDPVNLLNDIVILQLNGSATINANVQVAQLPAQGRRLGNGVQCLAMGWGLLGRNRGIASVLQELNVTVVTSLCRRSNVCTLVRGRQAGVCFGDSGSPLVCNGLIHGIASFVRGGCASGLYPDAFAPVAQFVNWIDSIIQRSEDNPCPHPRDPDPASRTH
Briefly: Phase-Ib study in CF patients, active neutrophil elastase in sputum by FRET assay. Format: in vivo. The protocol: The pharmacodynamic effect of ascending single doses of active compound was investigated by evaluation of neutrophil elastase (NE) activity in sputum using FRET (fluorescence resonance energy transfer) assay after PBS aliquotation and freezing.
On the day of screening, if possible, for baseline assessment of NE activity, on Day −1 as soon as possible after the subject's arrival at the study site for baseline assessment of NE activity, on Day 1 in the period of time between 1 h and 3 h after start of inhalation, and in the morning of Day 2, at approx. 24 h after start of inhalation.
Spontaneous sputum samples were collected in polystyrene Petri dishes and put on ice immediately. All processing steps had to be performed with cold reagents and on ice whenever possible. Plugs were separated from saliva, but the latter was not discarded. If a sputum sample was taken for both PK and NE activity in sputum analysis, the plug was split in 2 approximately equal parts. One part was processed for evaluation of NE activity in sputum the other one for PK analysis, as described above.
For evaluation of NE activity in sputum, at first, the weight of the sputum sample was determined and 8 mL cold phosphate-buffered saline (PBS) per gram purified sputum was added. The sample was vortexed for 30 s at room temperature (15-24° C.). Then, the soluble fraction was separated from the sputum pellet by centrifugation (10 min at 1000×g and 4° C.). The supernatant was transferred to a fresh tube.
Remaining insoluble particles were separated by a second centrifugation step at 3500×g for 15 min at 4° C. If the supernatant was not aliquoted immediately, the PBS/sputum supernatant was transferred to a fresh tube.
10 aliquots of 50 μL PBS/sputum were transferred into transfer tubes for evaluation. Moreover, 4 aliquots of 50 μL PBS/sputum were transferred into transfer tubes as backup. In case there was a leftover, the remaining volume was immediately transferred into a transfer tube for evaluation. Any leftover exceeding 2.0 mL was discarded.
The NE activity in sputum was evaluated by using a FRET elastase assay adapted from an assay described in Nature Protocols, 2008, 3, 991 (B. Korkmaz, S. Attucci, M. A. Juliano et al.) and validated by MLM Medical Labs GmbH, Mönchengladbach, Germany.
The assay is based on the reaction of human neutrophil elastase with the substrate 2Abz-Ala-Pro-Glu-Glu-Ile-Met-Arg-Arg-Gln-Tyr(3NO2)—OH (GeneCust Europe S. A., Ellange, Luxembourg, #P160301-SY452824). By adding the substrate solution the enzyme reaction is started and the elastase present in the samples reacts with added substrate. The product of the reaction is detected through fluorescence measurement and the initial reaction velocity is determined. The concentration of active elastase in the unknown samples is back-calculated using the calibration curve calculated from the standards.
An elastase reference stock solution (human neutrophil elastase [ELA2], Höltzel Diagnostika, Köln, Germany, #PN31255) with known enzymatic activity was prepared. The exact active elastase enzyme concentration was determined by titration against an alpha 1-antitrypsin solution (Athens Research and Technology, Athens, USA, #16-16-011609), with a defined concentration. The active elastase reference stock solution was adjusted by addition of PBS to a concentration of 3000 nM and aliquots were stored at −80° C.
The FRET assay was performed in 96 well white microtiter plates in total volume of 100 μL per well. PBS sputum dilutions of 1:5, 1:50 and 1:100 in elastase reaction buffer (50 mM HEPES, pH 7.4, 750 mM NaCl, 0.05% [v/v] NP-40) were prepared, 5 uL loaded per well and 90 uL elastase reaction buffer were added. A 5 mM substrate stock solution of 2Abz-Ala-Pro-Glu-Glu-Ile-Met-Arg-Arg-Gln-Tyr(3NO2)—OH in 30% (v/v) N,N-dimethylformamide/water was prepared and further diluted to 400 nM by addition of elastase reaction buffer. […]

The nature of data set [2]: GLP-compliant 28-day inhalation toxicity study in monkeys. Format: in vivo, cynomolgus monkey. On the procedure: In a GLP-compliant 28-day inhalation toxicity study in cynomolgus monkeys, conducted by Charles River Laboratories Preclinical Services, Tranent, Edinburgh, UK, the formulation described in Example 2 and dilutions thereof as well as the vehicle were administered using the Pari eFlow® XL 30 nebulizer device (Pari Pharma, Starnberg, Germany) with an oro-nasal inhalation mask for 60 min per day for 28 days, followed by a 2-week recovery period. […] In total five males and five females were used for each dose of the toxicity study including recovery. Parameters assessed included clinical signs, body weights, electrocardiology, ophthalmic examination, clinical pathology, toxicokinetic parameters in the plasma, gross necropsy findings, organ weights and histopathologic examinations.

The test system of data set [3] is neutrophil elastase. The data set is described as follows: LPS/fMLP model of neutrophil activation in the rat, neutrophil elastase activity in BAL supernatant. It counts as in vivo. The conditions noted are these: for NE activity: BAL 6 h post LPS, mean ± s.e.m., vehicle 0.25 ± 0.02.

On to `CCCCCCCC[C@@H]1NC(=O)[C@@H]2CCCN2C(=O)[C@H]2CCCN2C(=O)[C@H](Cc2ccc(O)cc2)NC(=O)[C@H](CCCCN)NC(=O)[C@H](CCC(N)=O)NC(=O)[C@@H]2CCCN2C(=O)[C@@H]2CCCN2C(=O)[C@H]([C@@H](C)CC)NC(=O)[C@H](CO)NC(=O)[C@H](C)NC(=O)[C@H]([C@@H](C)O)NC(=O)[C@H](CCC(=O)O)NC1=O` [active compound, cyclo(-OctG-Glu-Thr-Ala-Ser-Ile-Pro-Pro-Gln-Lys-Tyr-^DPro-Pro-)] (cyclo([Gly(octyl)]ETASIPPQKY[dP]P)), for which the “Mean concentration of active NE in sputum after single-dose inhalation” value in data set [1] (CF patients, 80-320 mg, extent independent of dose) is “strongly decreased”. For the same compound, the “Mean concentration of active NE in sputum at 24 h after inhalation” value in data set [1] (CF patients, high data variability) was “returned to baseline levels”. For the same compound, the “Mean (SD) concentration of active NE in sputum” value in data set [1] (dose level 1 (80 mg), 1-3 h after inhalation, predose 18823.6 (19758.72)) is 612.5 (1218.62) ng/mL; in data set [1] (dose level 1 (80 mg), 24 h after inhalation) it was 1467.7 (2154.43) ng/mL; in data set [1] (dose level 2 (160 mg), 1-3 h after inhalation, predose 9548.7 (6222.55)), 115.0 (0.00) ng/mL; in data set [1] (dose level 2 (160 mg), 24 h after inhalation), 16849.4 (23518.56) ng/mL; in data set [1] (dose level 3 (320 mg), 1-3 h after inhalation, predose 10480.7 (10528.00)) it was 115.0 (0.00) ng/mL; in data set [1] (dose level 3 (320 mg), 24 h after inhalation), 7712.5 (11394.04) ng/mL. For the same compound, the “Inhibition of active elastase in sputum” value in data set [1] (over several hours after single dose, all dose groups (FIG. 5)) was greater than 90%. The no-observed-adverse-effect level (NOAEL) (commonly the highest tested level that showed no adverse finding) at 28 days in data set [2] (both sexes, in vivo, inhaled or intranasal, cynomolgus monkey, oro-nasal inhalation 60 min per day for 28 days) stood at 112 mg/kg/day. Moreover, the “Haematology and clinical pathology” value in data set [2] (cynomolgus monkey, in vivo) is “some minor, toxicologically insignificant changes”. The Histopathologic findings entry in data set [2] (cynomolgus monkey, in vivo) was “increased numbers of alveolar macrophages, perivascular/peribronchiolar infiltrates, and granular eosinophilic deposits in the lung and lymphoid hyperplasia in the tracheobronchial lymph nodes”. For the same compound, the “Gross findings: lung weight” value in data set [2] (male monkeys at 112 mg/kg/day) was “increased lung weight”. Also, the “Body weight, clinical signs, ophthalmic, electrocardiographic and urinary findings” value in data set [2] (monkey, 11.2, 30.1 and 112 mg/kg/day) is recorded as “no body weight changes, clinical signs, ophthalmic or electrocardiographic findings or changes in urinary parameters attributable to drug treatment”. Also, the “Effect on neutrophil elastase activity in BAL fluid” value in data set [3] (0.3, 3 and 30 mg/kg by inhalation 3 h post LPS, 1 h prior to fMLP) is reported as “significantly inhibited”. In data set [3] (between dosing period and study termination), the “Test item related clinical signs” value is recorded as “No test item related clinical signs were observed”. Besides, the NE activity is on record as 0.10 ± 0.01 mU/mL eq in data set [3] (inhalation 0.3 mg/kg), 0.11 ± 0.01 mU/mL eq in data set [3] (inhalation 3 mg/kg) and 0.07 ± 0.01 mU/mL eq in data set [3] (inhalation 30 mg/kg). Besides, the “Efficacy in previous intratracheal study” value in data set [3] (intratracheal doses of 0.03 to 3 mg/kg) is “efficacious”.
